This passage reports IC50 results from US12686692B2, “KRas G12D inhibitors” (Mirati Therapeutics, Inc., priority 2020, dated 2026).

Molecules are shown by their SMILES.

By IC50 is commonly meant the concentration that inhibits the measured activity by half. A lower IC50 goes with inhibition by little substance.

Assay [1] relates to KRas G12D-mediated Phosphorylation of ERK. Put plainly: Inhibition of KRas G12D-mediated Phosphorylation of ERK in AGS cells. It is filed as cell-based. As to conditions: Homo sapiens; AGS cells expressing G12D, 3 hours, phospho-ERK normalized to GAPDH. The procedure:
AGS cells (ATCC CRL-1739) expressing G12D were grown in DMEM medium supplemented with 10% fetal bovine serum, 10 mM HEPES, and Penicillin/Streptomycin. Cells were plated in tissue culture treated 96 well plates at a density of 40,000 cells/well and allowed to attach for 12-14 hours. Diluted compounds were then added in a final concentration of 0.5% DMSO. After 3 hours, the medium was removed, 150 μl of 4.0% formaldehyde was added and the plates incubated at room temperature for 20 minutes. The plates were washed with PBS, and permeabilized with 150 μL of ice cold 100% methanol for 10 minutes. Non-specific antibody binding to the plates was blocked using 100 μL Licor blocking buffer (Li-Cor Biotechnology, Lincoln NE) for 1 hour at room temperature.
The amount of phospho-ERK was determined using an antibody specific for the phosphorylated form of ERK and compared to the amount of GAPDH. Primary antibodies used for the detection were added as follows: Phospho-ERK(Cell Signaling cs-9101) diluted 1:500 and GAPDH(Millipore MAB374) diluted 1:5000 in Licor block+0.05% Tween 20. The plates were incubated for 2 hours at room temperature. The plates were washed with PBS+0.05% Tween 20.
Secondary antibodies used to visualize primary antibodies were added as follows: Anti-rabbit-680 diluted 1:1000 and Anti-mouse-800 diluted 1:1000 both in Licor block+0.05% Tween20, and were incubated for 1 hour at room temperature. The plates were washed with PBS+0.05% Tween 20. A 100 μl aliquot of PBS was added to each well and the plates were read on a Li-Cor Odyssey CLX plate reader.
The phospho-ERK(Thr202/Tyr204 signal was normalized to the GAPDH signal for each well and percent of DMSO control values were calculated. IC50 values were generated using a 4-parameter fit of the dose response curve.

The target of the next assay is KRas G12D (Homo sapiens, UniProt P01116, G12D). As to the kind of experiment: KRas G12D Binding Assay (TR-FRET displacement of labeled tracer). Also on record: corresponding to amino acids 1:169, produced at Array BioPharma; biotin (protein is biotinylated). The conditions noted are these: TR-FRET displacement of Cy5 labelled tracer, biotinylated GDP-loaded KRAS G12D (aa 1:169), 60 minute incubation at 22° C. On the procedure: This Example illustrates that exemplary compounds of the present invention bind to KRas G12D and are capable of displacing a labeled tracer ligand occupying the KRas G12D binding site.
The ability of a compound to bind to KRAS G12D was measured using a TR-FRET displacement assay. Biotinylated GDP-loaded recombinant human KRAS G12D (corresponding to amino acids 1:169, produced at Array BioPharma) was incubated with a custom-made Cy5 labelled tracer, europium labelled streptavidin and compound (2% DMSO final) in buffer (50 mM HEPES [pH 7.5], 5 mM MgCl2, 0.005% Tween-20 & 1 mM DTT). After a 60 minute incubation at 22° C., the reaction was measured using a PerkinElmer EnVision multimode plate reader via TR-FRET dual wavelength detection, and the percent of control (POC) calculated using a ratiometric emission factor. […] The POC values were fit to a 4-parameter logistic curve and the IC50 value was determined as the concentration where the curve crosses 50 POC.

Sequence of KRas G12D (P01116 1-169 isoform P01116-2 G12D): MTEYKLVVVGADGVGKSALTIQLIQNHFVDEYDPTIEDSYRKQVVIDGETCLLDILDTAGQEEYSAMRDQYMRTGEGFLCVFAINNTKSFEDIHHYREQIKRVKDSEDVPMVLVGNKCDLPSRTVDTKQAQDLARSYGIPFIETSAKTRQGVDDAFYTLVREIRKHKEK

As for `CCc1c(F)ccc2cccc(N3CCc4c(nc(OC[C@]56CCCN5[C@@H](COC(=O)N5CCOCC5)CC6)nc4N4C[C@H]5CC[C@@H](C4)N5)C3)c12` [Example 98, ((3R,7aR)-7a-(((4-((1R,5S)-3,8-diazabicyclo[3.2.1]octan-3-yl)-7-(8-ethyl-7-fluoronaphthalen-1-yl)-5,6,7,8-tetrahydropyrido[3,4-d]pyrimidin-2-yl)oxy)methyl)hexahydro-1H-pyrrolizin-3-yl)methyl morpholine-4-carboxylate], the IC50 in assay [1] was 50 nM; at KRas G12D, 0.7 nM.
Turning to `CCc1cccc2cccc(N3CCc4c(nc(OC[C@]56CCCN5[C@@H](COC(=O)NCCOC)CC6)nc4N4C[C@H]5CC[C@@H](C4)N5)C3)c12` [Example 108, ((3R,7aR)-7a-(((4-((1R,5S)-3,8-diazabicyclo[3.2.1]octan-3-yl)-7-(8-ethylnaphthalen-1-yl)-5,6,7,8-tetrahydropyrido[3,4-d]pyrimidin-2-yl)oxy)methyl)hexahydro-1H-pyrrolizin-3-yl)methyl (2-methoxyethyl)carbamate], the IC50 in assay [1] was 585 nM; at KRas G12D, 2 nM.
The corresponding values for `CN(C)C(=O)OC[C@H]1CCC2(COc3nc4c(c(N5CC6CCC(C5)N6)n3)CCN(c3cccc(Cl)c3C3CC3)C4)CCCN12` (stereo partly drawn) [Example 33, (7a-(((4-((1R,5S)-3,8-diazabicyclo[3.2.1]octan-3-yl)-7-(3-chloro-2-cyclopropylphenyl)-5,6,7,8-tetrahydropyrido[3,4-d]pyrimidin-2-yl)oxy)methyl)hexahydro-1H-pyrrolizin-3-yl)methyl dimethylcarbamate (trans enantiomers)] are 5560 nM and 50.2 nM.
Regarding `CCc1cccc2cccc(N3CCc4c(nc(OCC56CCCN5C(COC(=O)N5CCS(=O)(=O)CC5)CC6)nc4N4C[C@H]5CC[C@@H](C4)N5)C3)c12` (mixture of isomers) [Example 67, (7a-(((4-((1R,5S)-3,8-diazabicyclo[3.2.1]octan-3-yl)-7-(8-ethylnaphthalen-1-yl)-5,6,7,8-tetrahydropyrido[3,4-d]pyrimidin-2-yl)oxy)methyl)hexahydro-1H-pyrrolizin-3-yl)methyl thiomorpholine-4-carboxylate 1,1-dioxide], the IC50 in assay [1] amounted to 150 nM; on KRas G12D, 1.5 nM.
For `CNC(=O)OCC1CCC2(COc3nc4c(c(N5C[C@H]6CC[C@@H](C5)N6)n3)CCN(c3cccc5cccc(Cl)c35)C4)CCCN12` (mixture of isomers) [Example 100, (7a-(((4-((1R,5S)-3,8-diazabicyclo[3.2.1]octan-3-yl)-7-(8-chloronaphthalen-1-yl)-5,6,7,8-tetrahydropyrido[3,4-d]pyrimidin-2-yl)oxy)methyl)hexahydro-1H-pyrrolizin-3-yl)methyl methylcarbamate], in that order: 1310 nM and 9.7 nM.
For `CCc1cccc2cccc(N3CCc4c(nc(OC[C@]56CCCN5[C@@H](COC(=O)N5CCCC5)CC6)nc4N4C[C@H]5CC[C@@H](C4)N5)C3)c12` [Example 99, ((3R,7aR)-7a-(((4-((1R,5S)-3,8-diazabicyclo[3.2.1]octan-3-yl)-7-(8-ethylnaphthalen-1-yl)-5,6,7,8-tetrahydropyrido[3,4-d]pyrimidin-2-yl)oxy)methyl)hexahydro-1H-pyrrolizin-3-yl)methyl pyrrolidine-1-carboxylate], in that order: 559 nM and 2.7 nM.
For `F[C@H]1CN2CCCC2(COc2nc3c(c(N4CC5CCC(C4)N5)n2)CCN(c2cccc4cccc(Cl)c24)C3)C1` (mixture of isomers) [Example 46, 4-((1R,5S)-3,8-diazabicyclo[3.2.1]octan-3-yl)-7-(8-chloronaphthalen-1-yl)-2-((2-fluorotetrahydro-1H-pyrrolizin-7a(5H)-yl)methoxy)-5,6,7,8-tetrahydropyrido[3,4-d]pyrimidine], the IC50 in assay [1] amounted to 4570 nM; on KRas G12D, 4.4 nM.
The corresponding values for `CCc1cccc2cccc(N3CCc4c(nc(OCC56CCCN5CC(F)C6)nc4N4C[C@H]5CC[C@@H](C4)N5)C3)c12` (mixture of isomers) [Example 9, 4-((1R,5S)-3,8-diazabicyclo[3.2.1]octan-3-yl)-7-(8-ethylnaphthalen-1-yl)-2-((2-fluorotetrahydro-1H-pyrrolizin-7a(5H)-yl)methoxy)-5,6,7,8-tetrahydropyrido[3,4-d]pyrimidine (racemic, trans)] are 1660 nM and 3.1 nM.
For `F[C@H]1CN2CCCC2(COc2nc3c(c(N4CC5CCC(C4)N5)n2)CCN(c2cccc4cccc(C(F)(F)F)c24)C3)C1` (mixture of isomers) [Example 51, 4-((1R,5S)-3,8-diazabicyclo[3.2.1]octan-3-yl)-2-((2-fluorotetrahydro-1H-pyrrolizin-7a(5H)-yl)methoxy)-7-(8-(trifluoromethyl)naphthalen-1-yl)-5,6,7,8-tetrahydropyrido[3,4-d]pyrimidine], in that order: above 16700 nM and 16.9 nM.
The corresponding values for `COC[C@@H]1C[C@@H]2CN(c3nc(OC[C@@H]4CCCN4C)nc4c3CCN(c3cccc5cccc(Cl)c35)C4)C[C@H]1N2` (single isomer, unassigned) [Example 93] are above 16700 nM and 360 nM.
Regarding `CCc1c(F)ccc2cccc(N3CCc4c(nc(OCC56CCCN5CCC6)nc4N4C[C@H]5CC[C@@H](C4)N5)C3)c12` [Example 19, 4-((1R,5S)-3,8-diazabicyclo[3.2.1]octan-3-yl)-7-(8-ethyl-7-fluoronaphthalen-1-yl)-2-((tetrahydro-1H-pyrrolizin-7a(5H)-yl)methoxy)-5,6,7,8-tetrahydropyrido[3,4-d]pyrimidine], the IC50 came to 324 nM in assay [1] and 1.8 nM on KRas G12D.
For `CCc1cccc2cccc(N3CCc4c(nc(OC[C@@H]5CCCN5C)nc4N4C[C@H]5CC[C@@H](C4)N5)C3)c12` [Example 8, 4-((1R,5S)-3,8-diazabicyclo[3.2.1]octan-3-yl)-7-(8-ethylnaphthalen-1-yl)-2-(((S)-1-methylpyrrolidin-2-yl)methoxy)-5,6,7,8-tetrahydropyrido[3,4-d]pyrimidine], in that order: 12600 nM and 5.5 nM.
The corresponding values for `CCc1cccc2cccc(N3CCc4c(nc(OCC56CCCN5[C@@H](COC(=O)NC)CC6)nc4N4CC5CCC(C4)N5)C3)c12` (stereo partly drawn) [Example 5, (7a-(((4-((1R,5S)-3,8-diazabicyclo[3.2.1]octan-3-yl)-7-(8-ethylnaphthalen-1-yl)-5,6,7,8-tetrahydropyrido[3,4-d]pyrimidin-2-yl)oxy)methyl)hexahydro-1H-pyrrolizin-3-yl)methyl methylcarbamate (trans enantiomers)] are 142 nM and 1.6 nM.
The corresponding values for `F[C@H]1CN2CCCC2(COc2nc3c(c(N4CC5CCC(C4)N5)n2)CCN(c2cccc(Cl)c2C(F)(F)F)C3)C1` (mixture of isomers) [Example 48, 4-((1R,5S)-3,8-diazabicyclo[3.2.1]octan-3-yl)-7-(3-chloro-2-(trifluoromethyl)phenyl)-2-((2-fluorotetrahydro-1H-pyrrolizin-7a(5H)-yl)methoxy)-5,6,7,8-tetrahydropyrido[3,4-d]pyrimidine] are 5220 nM and 5.5 nM.
Turning to `CCc1cccc2cc(O)cc(N3CCc4c(nc(OCC56CCCN5CCC6)nc4N4C[C@H]5CC[C@@H](C4)N5)C3)c12` [Example 14, 4-(4-((1R,5S)-3,8-diazabicyclo[3.2.1]octan-3-yl)-2-((tetrahydro-1H-pyrrolizin-7a(5H)-yl)methoxy)-5,8-dihydropyrido[3,4-d]pyrimidin-7(6H)-yl)-5-ethylnaphthalen-2-ol], the IC50 in assay [1] was determined as 21 nM; on KRas G12D it was 1.1 nM.
The corresponding values for `CCc1cccc2cc(O)cc(N3CCc4c(nc(OC[C@@]56CCCN5C[C@H](F)C6)nc4N4C[C@H]5CC[C@@H](C4)N5)C3)c12` [Example 7, 4-(4-((1R,5S)-3,8-diazabicyclo[3.2.1]octan-3-yl)-2-(((2R,7aS)-2-fluorotetrahydro-1H-pyrrolizin-7a(5H)-yl)methoxy)-5,8-dihydropyrido[3,4-d]pyrimidin-7(6H)-yl)-5-ethylnaphthalen-2-ol] are 13 nM and 1 nM.
